Columns and labels:
[1] = Intratumoral distribution of radioactivity, voxel frequency distribution from PET
Description: (§1) Mice were injected intratumorally with ^64Cu-compounds in concentrations of 40 MBq/mL. During the scan procedures, mice were anaesthetized using 3-4 % sevoflurane (Abbott Scandinavia AB, Sweden) mixed with 35% O2 and 65% medical grade air and placed on heating pads. Two mice were positioned side-by-side, separated by a 6 mm polystyrene block for PET/CT imaging using Inveon® small animal PET/CT system with CT based PET image attenuation (Siemens Medical Systems, Malvern, PA, USA). The protocol included a 12-minute PET scan, followed by a CT scan. Mice were fixed on a bed inside the scanner with the syringe placed and the needle fixed centrally in the tumor and ready for injection. Upon initiation of the first scan, intratumoral injections were done manually over 30 seconds, to investigate the initial dynamics of the tracer diffusion. Following this, two further scans were included; at six hours (5 minutes scan time) and 24 hours (12 minutes scan time) after injection. Reconstruction of the PET scans were performed using maximum a posteriori (MAP) reconstruction algorithm (voxel size: 0.815 x 0.815 x 0.796 mm; resolution (FWHM) 1.2 mm). The injection scan was reconstructed in 4 x 30 second and 10 x 60 second time frames to observe the dynamics of tracer diffusion. The two last time points were reconstructed in a single time frame.
(§2) Image analysis was performed using commercially available Inveon software (Siemens Medical Systems, Malvern, PA, USA). Regions of interest (ROIs) were manually drawn based on the co-registered PET/CT images. The following ROIs were constructed; tumors (complete volume delineated), liver, spleen, kidney, bladder, and blood. Blood activity was estimated from a constructed ROI covering the left ventricular lumen of the heart. ROIs in the left ventricle and abdominal aorta were subsequently segmented to only include the voxels displaying above 80% of maximum activity with the original ROI. From the obtained uptake values all data was calculated into %ID/g for each organ and as %ID in tumors by adjusting for CT based tumor volume. Furthermore, voxel values from tumor ROIs were used to generate histograms for substance diffusion over time in the tumor region.
Note that the first point in each plot represents the percentage of voxels with radioactivity concentrations lower than 1.6 %ID/g. These voxels are considered empty, meaning that the corresponding tumor region is non-radioactive.

[2] = Ex vivo well counting of tumor and organs; details: ex vivo after the 24-hour scan, mean ± SEM
Description: After the completion of PET/CT imaging, mice were sacrificed and tumor, spleen, and liver tissue were collected and well counted (Wizard, Perkin Elmer, US). Tissue radioactivity was recorded and corrected for isotope decay and well counter efficiency. Final results are presented in %ID/organ calculated from activity and the tissue weight.

[3] = Tumor retention and biodistribution by PET/CT after intratumoral injection; details: mean ± SEM; for Absolute retention of radioactivity in tumors: PET; for tumor retention: CT26 tumor, PET/CT
Description: CT26 wildtype cells (murine colon carcinoma, ATCC, Virginia, US) were cultured RPMI (Roswell Park Memorial Institute) medium supplemented with 10 % heat-inactivated Fetal Calf Serum (FCS) and 1 % Penicillin-Streptomycin (Invitrogen, Carlsbad, CA., US) retained in 5 % CO2 incubator at 37 °C. Immunocompetent female Balb/C mice (Charles River, Wilmington, MA., USA) were inoculated with tumor cells after one week of adaptation. All 20 mice included were inoculated subcutaneously with 3 x 10^5 CT26 wildtype cells in 100 µL medium on the right flank and hereafter monitored for weight and tumor size continuously for study purposes and to monitor the health of the mice. Tumor sizes were calculated from the formula of 0.52 x lenght^2 x width, as measured by external caliper. Animals were included in the study when tumors were approximately 400 mm^3.
as §1, §2

[4] = 5 minutes after the start of the PET scan
[5] = 12 minutes post intratumoral injection, 40 MBq/mL

Row | SMILES | non-radioactive voxels in tumor (<1.6 %ID/g) [1, 4] | Accumulation of radioactivity in liver [2] [ID%/g] | Accumulation of radioactivity in spleen [2] [ID%/g] | Accumulation of radioactivity in tumor [2] [ID%/g] | Absolute retention of radioactivity in tumors ([3]; 0.25 min) [%ID/g] | Absolute retention of radioactivity in tumors ([3]; 0.75 min) [%ID/g] | Absolute retention of radioactivity in tumors ([3]; 1.25 min) [%ID/g] | Absolute retention of radioactivity in tumors ([3]; 1.75 min) [%ID/g] | Absolute retention of radioactivity in tumors ([3]; 2.5 min) [%ID/g] | Absolute retention of radioactivity in tumors ([3]; 3.5 min) [%ID/g] | Absolute retention of radioactivity in tumors ([3]; 4.5 min) [%ID/g] | Absolute retention of radioactivity in tumors ([3]; 5.5 min) [%ID/g] | Absolute retention of radioactivity in tumors ([3]; 6.5 min) [%ID/g] | Absolute retention of radioactivity in tumors ([3]; 7.5 min) [%ID/g] | Absolute retention of radioactivity in tumors ([3]; 8.5 min) [%ID/g] | Absolute retention of radioactivity in tumors ([3]; 9.5 min) [%ID/g] | Absolute retention of radioactivity in tumors ([3]; 10.5 min) [%ID/g] | Absolute retention of radioactivity in tumors ([3]; 11.5 min) [%ID/g] | tumor retention [3, 5] [%ID/tumor] | Absolute retention of radioactivity in tumors ([3]; 6 h) [%ID/g] | further results
1 | [Cl][64Cu][Cl] [Free 64CuCl2] | less than 10% | 14 ± 1 | 2 ± 0.6 | 11 ± 3 | 97 ± 19 | 167 ± 50 | 164 ± 53 | 162 ± 54 | 159 ± 53 | 156 ± 54 | 154 ± 53 | 152 ± 53 | 150 ± 53 | 148 ± 52 | 146 ± 52 | 145 ± 53 | 143 ± 52 | 142 ± 51 | 45 ± 5 | 18 ± 3 | Absolute retention of radioactivity in tumors ([3]; 24 h): 10 ± 1 %ID/g
2 | O=C([O-])CN1CCN(CC(=O)[O-])CCN(CC(=O)O)CCN(CC(=O)O)CC1.[64Cu+2] [64Cu-DOTA] | less than 10% | 1 ± 0.2 | 0.3 ± 0.05 | 1 ± 0.3 | 78 ± 37 | 130 ± 13 | 127 ± 14 | 123 ± 14 | 120 ± 14 | 115 ± 14 | 111 ± 14 | 108 ± 14 | 105 ± 14 | 102 ±14 | 100 ± 14 | 97 ± 13 | 94 ± 13 | 92 ± 12 | 52 ± 4 | 4 ± 1 | non-radioactive voxels in tumor (<1.6 %ID/g) ([1]; 6 h): More than 40%; tumor retention ([3]; 6 hours post intratumoral injection): 2.4 ± 0.7 %ID/tumor; Absolute retention of radioactivity in tumors ([3]; 24 h): 2 ± 0.8 %ID/g; tumor retention ([3]; 24 hours post intratumoral injection): 1.4 ± 0.4 %ID/tumor

— paper PMC7256013, “Preclinical evaluation of cationic DOTA-triarginine-lipid conjugates for theranostic liquid brachytherapy” (Nanotheranostics, 2020)
